Where two headings read alike, the source gives them in different places.
Columns and labels:
Alternaria solani = assay: Activity against Alternaria solani in the microtiterplate test; type: cell-based; conditions: single active, growth at 405 nm 7 days after inoculation, 18° C
Pyricularia oryzae = type: cell-based; conditions: single active, growth at 405 nm 7 days after inoculation, 18° C

Compound O=C(NC(=O)c1c(F)cccc1F)Nc1ccc(Oc2ccc(C(F)(F)F)cc2Cl)cc1F [flufenoxuron] has an Observed efficacy (Alternaria solani; 16 ppm) of 0 and an Observed efficacy (Pyricularia oryzae; 1 ppm) of 6.
COC(=O)N(OC)c1ccccc1COc1ccn(-c2ccc(Cl)cc2)n1 [pyraclostrobin] showed an Observed efficacy (Alternaria solani; 0.063 ppm) of 56 and an Observed efficacy (Pyricularia oryzae; 0.004 ppm) of 23.

Reference: patent publication US20120316062A1 (priority 2009, published 2012)
